Data reported in paper PMC7687371, “Quantitative in Vitro to in Vivo Extrapolation (QIVIVE) for Predicting Reduced Anogenital Distance Produced by Anti-Androgenic Pesticides in a Rodent Model for Male Reproductive Disorders” (Environmental Health Perspectives, 2020).
Where two headings read alike, the source gives them in different places. Marks after values point to notes of the source that are not given here.

Key:
[1] = PBK model simulation of fetal and maternal concentrations; design: species or system rat
Wistar rats [2] = conditions: rat, in vivo
Sprague-Dawley rats = conditions: male, rat, in vivo
[3] = cited from earlier work
pregnant dams and pups = conditions: ref EFSA's Draft Assessment Reports (DARs); cited from earlier work
Wistar rats [4] = test: In vivo Study 3 (fludioxonil, cyprodinil, dimethomorph), reproductive/developmental toxicity, AGD; conditions: for AGDI mean: Study 3, male pups
Wistar rats [5] = conditions: male, rat, in vivo, 40 mg/kg/day
Method: In total, four in vivo exposure studies were conducted with pesticide exposures to pregnant rats during gestation and lactation to the selected compound (Table 2). […] For one selected dose of each compound, the internal body concentrations in dams and fetuses were determined by cesarean section at GD21. Due to the study outcomes from the third study, we conducted a fourth follow-up study on dimethomorph (Study 4).
Pup weights and AGD were measured after birth at PD1 using a stereomicroscope with a micrometer eyepiece and were determined as the distance between the genital papilla and the anus. To discriminate between an anti-androgenic effect and stunted growth, the AGD index (AGDI) was calculated by dividing AGD by the cube root of the BW (as described by [Hass et al. 2007]). The estimation of AGDI effect doses by regression modeling required a standardized AGDI scale. Therefore, we normalized the AGDI values in relation to the dynamic range spanned by the mean AGDI of the male and the female controls as (38) normalized AGDI=mean(AGDI of male controls)−AGDI(exposed animal)/mean(AGDI of male controls)−mean(AGDI of female controls).

COc1ccc(C(=CC(=O)N2CCOCC2)c2ccc(Cl)cc2)cc1OC [Dimethomorph, dimethomorph]
Ratio between observation and prediction (fetal and dams' plasma concentrations) ([1]; GD21 measurements vs PBK simulations): 0.5 to 2
Predicted maternal plasma level relative to analytically determined concentration ([1]; dams, GD21): approximately one-tenth
Shortening of AGDI compared with male controls (normalized AGDI scale) (Wistar rats [2]; male, Wistar (HanTac:WH)): around 10%
AGDI mean (Wistar rats [2]; male, Wistar, 20 mg/kg): 2.01
AGDI reduction (%) (Wistar rats [2]; male, Wistar, 20 mg/kg/day): 13%
AGDI mean (Wistar rats [2]; male, Wistar, 60 mg/kg): 2.16
Nipple retention at PD14, statistics in words (Wistar rats [2]): no statistically significant effects on nipple retention
AGDI mean (Sprague-Dawley rats; 20 mg/kg): 1.95
AGDI mean (Sprague-Dawley rats; 60 mg/kg): 1.88
AGDI mean (Sprague-Dawley rats; 180 mg/kg): 1.91
Unbound plasma fraction (%) ([3]; plasma): 9.4^g %
Critical toxicity (pregnant dams and pups): Reduced maternal and pup body weight, reduced gestation length
LOAEL (mg/kg bw) (pregnant dams and pups): 67 mg/kg bw
NOAEL (mg/kg bw) (pregnant dams and pups): 20 mg/kg bw
% postnatal deaths (Wistar rats [4]; 20 mg/kg bw/day): 1.4 ± 3.8%
AGD index females (Wistar rats [4]; 20 mg/kg bw/day): 1.12 ± 0.03
AGD index males (Wistar rats [4]; 20 mg/kg bw/day): 2.01 ± 0.04
% postnatal deaths (Wistar rats [4]; 60 mg/kg bw/day): 2.6 ± 4.1%
AGD index females (Wistar rats [4]; 60 mg/kg bw/day): 1.18 ± 0.05
AGD index males (Wistar rats [4]; 60 mg/kg bw/day): 2.15 ± 0.08

N#Cc1c[nH]cc1-c1cccc2c1OC(F)(F)O2 [Fludioxonil, fludioxonil]
Unbound plasma fraction (%) ([3]; ref Wetmore et al. (2012)): 0.5^g %
Critical toxicity (pregnant dams and pups): Reduced maternal and pup BW
LOAEL (mg/kg bw) (pregnant dams and pups): 212 mg/kg bw
NOAEL (mg/kg bw) (pregnant dams and pups): 21 mg/kg bw
% perinatal loss (Wistar rats [4]; 20 mg/kg bw/day): 11.5 ± 11.9%
% postimplantation loss (Wistar rats [4]; 20 mg/kg bw/day): 8.4 ± 10.2%
% postnatal deaths (Wistar rats [4]; 20 mg/kg bw/day): 3.1 ± 9.7%
%males (Wistar rats [4]; 20 mg/kg bw/day): 54.8 ± 15.6%
AGD females (mm) (Wistar rats [4]; 20 mg/kg bw/day): 2.15 ± 0.09 mm
AGD females (units) (Wistar rats [4]; 20 mg/kg bw/day): 13.04 ± 0.5 units
AGD males (mm) (Wistar rats [4]; 20 mg/kg bw/day): 3.84 ± 0.12 mm
AGD males (units) (Wistar rats [4]; 20 mg/kg bw/day): 23.26 ± 0.7 units
Dam bw gain PD 1-14 (Wistar rats [4]; 20 mg/kg bw/day): 33.1 ± 12.7
Dam bw gain, GD7- PD 1 (Wistar rats [4]; 20 mg/kg bw/day): 23.8 ± 10.5
Dam bw gain,GD7-21 (Wistar rats [4]; 20 mg/kg bw/day): 92.7 ± 15.8
Female birth weight (Wistar rats [4]; 20 mg/kg bw/day): 6.21 ± 0.5
Gestation length (Wistar rats [4]; 20 mg/kg bw/day): 23.0 ± 0.0 days
Litter size (Wistar rats [4]; 20 mg/kg bw/day): 10.5 ± 2.4
Male birth weight (Wistar rats [4]; 20 mg/kg bw/day): 6.48 ± 0.4
Male weights PD 23 (Wistar rats [4]; 20 mg/kg bw/day): 48.66 ± 6.1
Nipple retention females (Wistar rats [4]; 20 mg/kg bw/day): 12.21 ± 0.2
Nipple retention males (Wistar rats [4]; 20 mg/kg bw/day): 0.04 ± 0.09
Offspring weight PD 6 (Wistar rats [4]; 20 mg/kg bw/day): 12.98 ± 1.3
Offspring weight PD 14 (Wistar rats [4]; 20 mg/kg bw/day): 28.07 ± 3.3
% perinatal loss (Wistar rats [4]; 60 mg/kg bw/day): 18.7 ± 32.5%
% postimplantation loss (Wistar rats [4]; 60 mg/kg bw/day): 15.9 ± 32.1%
% postnatal deaths (Wistar rats [4]; 60 mg/kg bw/day): 3.4 ± 9.6%
%males (Wistar rats [4]; 60 mg/kg bw/day): 47.2 ± 14.5%
AGD females (mm) (Wistar rats [4]; 60 mg/kg bw/day): 2.10 ± 0.11 mm
AGD females (units) (Wistar rats [4]; 60 mg/kg bw/day): 12.70 ± 0.6 units
AGD males (mm) (Wistar rats [4]; 60 mg/kg bw/day): 3.77 ± 0.16 mm
AGD males (units) (Wistar rats [4]; 60 mg/kg bw/day): 22.83 ± 1.0 units
Dam bw gain PD 1-14 (Wistar rats [4]; 60 mg/kg bw/day): 38.1 ± 10.8
Dam bw gain, GD7- PD 1 (Wistar rats [4]; 60 mg/kg bw/day): 16.8 ± 8.1
Dam bw gain,GD7-21 (Wistar rats [4]; 60 mg/kg bw/day): 84.8 ± 9.7
Female birth weight (Wistar rats [4]; 60 mg/kg bw/day): 6.18 ± 0.3
Gestation length (Wistar rats [4]; 60 mg/kg bw/day): 23.0 ± 0.0 days
Litter size (Wistar rats [4]; 60 mg/kg bw/day): 11.0 ± 1.3
Male birth weight (Wistar rats [4]; 60 mg/kg bw/day): 6.58 ± 0.4
Male weights PD 23 (Wistar rats [4]; 60 mg/kg bw/day): 49.78 ± 6.9
Nipple retention females (Wistar rats [4]; 60 mg/kg bw/day): 12.13 ± 0.2
Nipple retention males (Wistar rats [4]; 60 mg/kg bw/day): 0.08 ± 0.16
Offspring weight PD 6 (Wistar rats [4]; 60 mg/kg bw/day): 13.20 ± 1.6
Offspring weight PD 14 (Wistar rats [4]; 60 mg/kg bw/day): 28.41 ± 4.2
% perinatal loss (Wistar rats [4]; 180 mg/kg bw/day): 32.3 ± 35.6%
% postimplantation loss (Wistar rats [4]; 180 mg/kg bw/day): 31.4 ± 36.0%
% postnatal deaths (Wistar rats [4]; 180 mg/kg bw/day): 1.1 ± 2.7%
%males (Wistar rats [4]; 180 mg/kg bw/day): 63.0 ± 20.8%
AGD females (mm) (Wistar rats [4]; 180 mg/kg bw/day): 2.15 ± 0.10 mm
AGD females (units) (Wistar rats [4]; 180 mg/kg bw/day): 13.04 ± 0.6 units
AGD males (mm) (Wistar rats [4]; 180 mg/kg bw/day): 3.81 ± 0.18 mm
AGD males (units) (Wistar rats [4]; 180 mg/kg bw/day): 23.11 ± 1.1 units
Dam bw gain PD 1-14 (Wistar rats [4]; 180 mg/kg bw/day): 23.2 ± 15.5
Dam bw gain, GD7- PD 1 (Wistar rats [4]; 180 mg/kg bw/day): 17.5 ± 14.9
Dam bw gain,GD7-21 (Wistar rats [4]; 180 mg/kg bw/day): 71.3 ± 20.7
Female birth weight (Wistar rats [4]; 180 mg/kg bw/day): 6.06 ± 0.5
Gestation length (Wistar rats [4]; 180 mg/kg bw/day): 22.8 ± 0.75 days
Litter size (Wistar rats [4]; 180 mg/kg bw/day): 8.2 ± 5.0
Male birth weight (Wistar rats [4]; 180 mg/kg bw/day): 6.51 ± 0.6
Male weights PD 23 (Wistar rats [4]; 180 mg/kg bw/day): 47.97 ± 5.6
Nipple retention females (Wistar rats [4]; 180 mg/kg bw/day): 12.41 ± 0.6
Nipple retention males (Wistar rats [4]; 180 mg/kg bw/day): 0.47 ± 0.78
Offspring weight PD 6 (Wistar rats [4]; 180 mg/kg bw/day): 12.54 ± 1.9
Offspring weight PD 14 (Wistar rats [4]; 180 mg/kg bw/day): 26.58 ± 4.1
Nipple retention at PD14, statistics in words (Wistar rats [4]; Study 3): no statistically significant effects on nipple retention
AGDI mean (Wistar rats [4]; dose 20 mg/kg BW): 2.06
AGDI mean (Wistar rats [4]; dose 60 mg/kg BW): 2.01
AGDI mean (Wistar rats [4]; dose 180 mg/kg BW): 2.06
AGDI reduction (%) (Wistar rats [4]; male offspring, normalized AGDI scale, dose 60 mg/kg BW per day): 13%

CC12CC1(C)C(=O)N(c1cc(Cl)cc(Cl)c1)C2=O (stereo not drawn) [Procymidone, procymidone, reference compound]
AGDI reduction (%) (Wistar rats [5]): 34^d %
